Data reported in patent US9259390B2, “Parenteral and oral formulations of benzimidazoles” (priority 2003, dated 2016).
≈ marks a conversion by molar mass, not a printed value. Where “and” joins values, the source holds several entries; their conditions need not be identical. Equal entries are not always repeated.

Legend:
[1] = tested on: H1299 cells; test: Cell growth inhibition in NSCLC cells; type: cell-based; conditions: Homo sapiens, NCI-H1299, NSCLC cells; MZ from two microemulsion formulations
[2] = tested on: SRB1; test: Cell growth inhibition in skin cancer cells; type: cell-based
[3] = tested on: 2237; test: Cell growth inhibition in skin cancer cells; type: cell-based
[4] = tested on: A375; test: Cell growth inhibition in skin cancer cells; type: cell-based; conditions: Homo sapiens, A-375
[5] = physchem
[6] = 33 days
[7] = In vitro MZ release, USP Dissolution Apparatus 2; type: physicochemical; conditions: for Cumulative MZ Released: individual determinations
Description: All four formulations were filled manually with a syringe into a hydrophilic airfill soft gelatin capsule (R. P. Scherer, Basking Ridge, N.J.) and the resulting hole was sealed thermally. […] C. Cremphor RH 40 was used to maintain the sink condition of the releasing medium. The release medium was constantly stirred at 50 rpm by a Teflon-coated dissolution paddle. Serial release samples were withdrawn and filtered through a 0.45 μm Millipore filter and analyzed by the HPLC assay.

IC50 [1]: 0.008 µg/mL (≈ 0.0271 µM) | IC50 [2]: 0.091 µg/mL (≈ 0.308 µM) | IC50 [3]: 0.171 µg/mL (≈ 0.579 µM) | IC50 [4]: 0.129 µg/mL (≈ 0.437 µM) | logP [5]: 2.51 | pH-stability [6]: sufficiently stable | Cumulative MZ Released, Mean ([7]; 10 min): 0.04 % Dose | Cumulative MZ Released, Mean ([7]; 20 min): 0.15 % Dose | Cumulative MZ Released, Mean ([7]; 30 min): 0.22 % Dose | Cumulative MZ Released, Mean ([7]; 40 min): 0.29 % Dose | Cumulative MZ Released, Mean ([7]; 50 min): 0.29 % Dose | Cumulative MZ Released ([7]; 60 min, listed as MZ powder): 0.27 % Dose (2×) and 0.32 % Dose | Cumulative MZ Released, Mean ([7]; 60 min, listed as MZ powder): 0.29 % Dose | Cumulative MZ Released, Mean ([7]; 60 min, listed as unformulated drug powder): 0.3 % Dose
SMILES: COC(=O)Nc1nc2ccc(C(=O)c3ccccc3)cc2[nH]1 [MZ, methyl 5-benzoylbenzimidazole-2-carbamate]
Cumulative MZ Released ([7]; 10 min, listed as MZ powder): 0.01 % Dose and 0.012 % Dose and 0.083 % Dose | Cumulative MZ Released ([7]; 20 min, listed as MZ powder): 0.035 % Dose and 0.22 % Dose and 0.18 % Dose | Cumulative MZ Released ([7]; 30 min, listed as MZ powder): 0.14 % Dose and 0.25 % Dose and 0.28 % Dose | Cumulative MZ Released ([7]; 40 min, listed as MZ powder): 0.22 % Dose and 0.23 % Dose and 0.41 % Dose | Cumulative MZ Released ([7]; 50 min, listed as MZ powder): 0.2 % Dose and 0.31 % Dose and 0.35 % Dose
